The source of these data is patent US20060004197A1, “Sulfonamide-based compounds as protein tyrosine kinase inhibitors” (priority 2004, published 2006).

Holding throughout (assay type): biochemical
One test concerns the target FGF receptor (FGFr). Briefly: FGFr tyrosine kinase activity, poly E4Y / 32P-ATP phosphorylation assay.
A further test addresses T1, Recombinant human Src (Homo sapiens, UniProt P12931).
T1 construct: made in house; host or cells: baculovirus-insect cell system
Put plainly: Src tyrosine kinase activity, poly E4Y / 32P-ATP phosphorylation assay.

For another test, the target named is Recombinant Csk (Homo sapiens, UniProt P41240). Briefly: Csk tyrosine kinase activity, poly E4Y / 32P-ATP phosphorylation assay.
Setting [1] is: Table 2, Formula I compounds, NI = no inhibition at 100 μg/mL.
The mark [2] stands for this setting: poly E4Y / 32P-ATP, Formula IV compounds.
[3] abbreviates: Table 3, Formula II compounds, NI = no inhibition at 100 μg/mL.
[4] abbreviates: Table 4, Formula III compounds, NI = no inhibition at 100 μg/mL.

Recombinant Csk, sequence (P41240 whole entry, species assumed): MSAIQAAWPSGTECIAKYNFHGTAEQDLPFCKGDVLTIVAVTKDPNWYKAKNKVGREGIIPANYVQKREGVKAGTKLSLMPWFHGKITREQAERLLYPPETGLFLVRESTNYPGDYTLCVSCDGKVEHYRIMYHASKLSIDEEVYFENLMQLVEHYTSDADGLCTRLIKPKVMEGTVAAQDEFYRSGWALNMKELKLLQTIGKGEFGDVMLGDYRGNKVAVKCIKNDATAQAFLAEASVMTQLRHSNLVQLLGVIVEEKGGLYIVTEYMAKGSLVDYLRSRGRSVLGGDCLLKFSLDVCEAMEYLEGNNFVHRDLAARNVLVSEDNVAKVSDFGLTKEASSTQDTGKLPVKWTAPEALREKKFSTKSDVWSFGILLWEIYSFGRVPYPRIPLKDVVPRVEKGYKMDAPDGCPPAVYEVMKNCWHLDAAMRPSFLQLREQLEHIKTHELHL
T1 sequence (P12931 whole entry): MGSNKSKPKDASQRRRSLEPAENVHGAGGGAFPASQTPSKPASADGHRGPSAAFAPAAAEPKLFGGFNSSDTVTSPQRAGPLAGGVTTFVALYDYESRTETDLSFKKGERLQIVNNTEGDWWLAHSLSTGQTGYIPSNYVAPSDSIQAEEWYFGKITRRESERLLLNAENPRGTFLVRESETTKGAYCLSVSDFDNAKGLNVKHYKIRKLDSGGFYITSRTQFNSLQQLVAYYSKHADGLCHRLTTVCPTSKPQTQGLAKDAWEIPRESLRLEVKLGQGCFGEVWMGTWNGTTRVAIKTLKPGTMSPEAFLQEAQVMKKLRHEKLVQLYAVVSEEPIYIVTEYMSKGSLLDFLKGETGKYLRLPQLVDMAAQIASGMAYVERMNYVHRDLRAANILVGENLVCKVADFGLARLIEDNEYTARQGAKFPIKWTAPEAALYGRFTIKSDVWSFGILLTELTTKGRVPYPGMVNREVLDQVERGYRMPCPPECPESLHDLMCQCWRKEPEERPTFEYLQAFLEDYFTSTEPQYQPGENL

On to `Cc1ccc(S(=O)(=O)Nc2cc(Sc3c(C)cccc3C)c([N+](=O)[O-])cc2NS(=O)(=O)c2ccc(C)cc2)cc1` [Compound 4m, N-[4-(2,6-dimethyl-phenylsulfanyl)-5-nitro-2-(4-toluenesulfonylamino)-phenyl]-4-toluenesulfonamide], for which the half-inhibitory concentration (IC50) (in general, the concentration that gives 50% inhibition) against FGF receptor (FGFr) (setting [1]) came out at 4.7 µM; on Recombinant human Src (setting [1]), 1 µM; on Recombinant Csk (setting [1]), 5.4 µM.
On to `Cc1ccc(S(=O)(=O)N(C)c2cc(Sc3ccc(Cl)cc3)c([N+](=O)[O-])cc2N(C)S(=O)(=O)c2ccc(C)cc2)cc1` [Compound 53, N-[4-(4-chloro-phenylsulfanyl)-5-nitro-2-(4-toluenesulfonyl-methyl-amino)-phenyl]-N-methyl-4-toluenesulfonamide], for which the IC50 against FGF receptor (FGFr) (setting [2]) amounted to 254 µM; on Recombinant human Src (setting [2]), 388 µM; on Recombinant Csk (setting [2]), 261 µM.
Turning to `Cc1ccc(S(=O)(=O)Nc2ccc(Oc3ccc(F)cc3)cc2NS(=O)(=O)c2ccc(C)cc2)cc1` [Compound 12t, N-[4-(4-fluoro-phenoxy)-2-(4-toluenesulfonylamino)-phenyl]-4-toluenesulfonamide], the IC50 is 40 µM against FGF receptor (FGFr) (setting [3]), 19 µM on Recombinant human Src (setting [3]) and 105 µM at Recombinant Csk (setting [3]).
For `Cc1ccc(S(=O)(=O)Nc2ccc([N+](=O)[O-])c(Sc3ccc(Cl)cc3)c2)cc1` [Compound 70, N-[3-(4-chloro-phenylsulfanyl)-4-nitro-phenyl]-4-toluenesulfonamide], the half-inhibitory concentration (IC50) against FGF receptor (FGFr) (setting [2]) turned out to be 251 µM; at Recombinant human Src (setting [2]), 599 µM; at Recombinant Csk (setting [2]) it was 369 µM.
Consider `COc1ccc(CSc2cc(NS(=O)(=O)c3ccc(C)cc3)c(NS(=O)(=O)c3ccc(C)cc3)cc2[N+](=O)[O-])cc1` [Compound 4s, N-[4-(4-methoxy-benzylsulfanyl)-5-nitro-2-(4-toluenesulfonylamino)-phenyl]-4-toluenesulfonamide], for which the IC50 against FGF receptor (FGFr) (setting [1]) is 4.3 µM; at Recombinant human Src (setting [1]), 1.3 µM; on Recombinant Csk (setting [1]), 5.7 µM.
On the same counts, the results for `Cc1ccc(S(=O)(=O)Nc2cc(Sc3ccc(Cl)cc3)c([N+](=O)[O-])cc2NS(=O)(=O)c2ccc(C)cc2)cc1` [Compound 4e, N-[4-(4-chloro-phenylsulfanyl)-5-nitro-2-(4-toluenesulfonylamino)-phenyl]-4-toluenesulfonamide] are 1.7 µM, 8 µM and 23 µM.
As to `Cc1ccc(S(=O)(=O)Nc2ccc(Oc3ccc(Cl)cc3)cc2NS(=O)(=O)c2ccc(C)cc2)cc1` [Compound 12w, N-[4-(4-chloro-phenoxy)-2-(4-toluenesulfonylamino)-phenyl]-4-toluenesulfonamide], the figures for the half-maximal inhibitory concentration (IC50) on FGF receptor (FGFr) (setting [3]), on Recombinant human Src (setting [3]) and on Recombinant Csk (setting [3]) were 15.3 µM, 5.5 µM and 185 µM, respectively.
As for `COc1ccc(Oc2ccc(NS(=O)(=O)c3ccc(NC(C)=O)cc3)c(NS(=O)(=O)c3ccc(NC(C)=O)cc3)c2)cc1` [Compound 12j, N-[2-(4-acetamido-benzenesulfonylamino)-4-(4-methoxy-phenoxy)-phenyl]-4-acetamido-benzenesulfonamide], the figures for the IC50 at FGF receptor (FGFr) (setting [3]), on Recombinant human Src (setting [3]) and on Recombinant Csk (setting [3]) were 192 µM, 50 µM and greater than 160 µM, respectively.
Consider `COc1ccc(Oc2ccc(NS(=O)(=O)c3ccc(C)cc3)c(C(=O)O)c2)cc1` [Compound 68, 5-(4-methoxy-phenoxy)-2-(4-toluenesulfonylamino)-benzoic acid], for which, on FGF receptor (FGFr) (setting [2]), the “IC50 (μM) FGFr” value is “NI (NI = no inhibition at 100 μg/mL)”. Also, the IC50 turned out to be 133 µM at Recombinant human Src (setting [2]) and 303 µM at Recombinant Csk (setting [2]).
As for `COC(=O)c1cc(NS(=O)(=O)c2ccc(C)cc2)c(NS(=O)(=O)c2ccc(C)cc2)cc1Oc1ccc(OC)cc1` [Compound 33, Methyl 2-(4-methoxy-phenoxy)-4,5-bis-(4-toluenesulfonylamino)-benzoate], the “IC50 (μM) FGFr” value on FGF receptor (FGFr) (setting [4]) was “NI (NI = no inhibition at 100 μg/mL)”. Further, the IC50 is 67 µM at Recombinant human Src (setting [4]) and greater than 168 µM on Recombinant Csk (setting [4]).
As for `Cc1ccc(S(=O)(=O)Nc2ccc(OCCCO)cc2NS(=O)(=O)c2ccc(C)cc2)cc1` [Compound 12bb, N-[4-(3-hydroxy-propoxy)-2-(4-toluenesulfonylamino)-phenyl]-4-toluenesulfonamide], the “IC50 (μM) FGFr” value against FGF receptor (FGFr) (setting [3]) is recorded as “NI (NI = no inhibition at 100 μg/mL)”. Moreover, the IC50 at Recombinant human Src (setting [3]) and at Recombinant Csk (setting [3]) was greater than 204 µM throughout.
With `CC(=O)Nc1cc(NS(=O)(=O)c2ccc(C)cc2)c(NS(=O)(=O)c2ccc(C)cc2)cc1Sc1ccc(Cl)cc1` [Compound 24, N-[2-(4-chloro-phenylsulfanyl)-4,5-bis-(4-toluenesulfonylamino)-phenyl]-acetamide], the concentration for half-maximal inhibition (IC50) against FGF receptor (FGFr) (setting [4]) was 515 µM; on Recombinant human Src (setting [4]) it was greater than 162 µM; on Recombinant Csk (setting [4]) it was greater than 162 µM.
